Data reported in US9708314B2, “Heterocyclic amide compound” (NISSAN CHEMICAL INDUSTRIES, LTD., priority 2013, dated 2017).

Columns and labels:
Format in all cases: in vivo
[1] = tested on: Echinochloa oryzacola Vasing.; assay: Test Example 1: herbicidal activity, application before weed generation in submerged conditions; conditions: Seventeenth Table; for A: Echinochloa oryzicola Vasing. (herbicidal effect grade): Application herbicide amount 320 g/ha; for A (Echinochloa oryzicola Vasing.) herbicidal ratio grade: application herbicide amount 320 g/ha
Method in brief: (§1)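 Alluvial soil in Wagner pots flooded to 4 cm water depth; weed seeds sown and 2.5 leaf stage rice seedlings transplanted. Emulsion diluted in water applied to water surface on sowing day at stated g/ha. Greenhouse 25° C. to 30° C.; effects scored 0–5 by herbicidal ratio after three weeks.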

Monochoria vaginalis [2] = assay: as above; conditions: Seventeenth Table; for C: Monochoria vaginalis (herbicidal effect grade): Application herbicide amount 320 g/ha; for C (Monochoria vaginalis) herbicidal ratio grade: application herbicide amount 320 g/ha
Method in brief: as §1

Scirpus juncoides [3] = assay: as above; conditions: Seventeenth Table; for B: Scirpus juncoides (herbicidal effect grade): Application herbicide amount 320 g/ha; for B (Scirpus juncoides) herbicidal ratio grade: application herbicide amount 320 g/ha
Method in brief: as §1

[4] = tested on: transplanted Oryza sativa; assay: Test Example 1: effect on crop, application before weed generation in submerged conditions; conditions: Seventeenth Table; for a: transplanted Oryza sativa (effect on crop grade): Application herbicide amount 320 g/ha; for a (transplanted Oryza sativa) effect on crop grade: application herbicide amount 320 g/ha
Method in brief: as §1

[5] = tested on: Echinochloa oryzacola Vasing.; assay: Test Example 2: herbicidal activity, application during weed generation in submerged conditions; conditions: Eighteenth Table; application herbicide amount 320 g/ha
Method in brief: (§2)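 Alluvial soil in Wagner pots flooded to 4 cm water depth; seeds sown mixed, grown in greenhouse at 25–30 °C. At one- to two-leaf stage, emulsion diluted with water to the set rate (g/ha) was applied to the water surface. Effect scored 0–5 by herbicidal ratio three weeks later.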

Monochoria vaginalis [6] = assay: as above; conditions: Eighteenth Table; application herbicide amount 320 g/ha
Method in brief: as §2

Scirpus juncoides [7] = assay: as above; conditions: Eighteenth Table; application herbicide amount 320 g/ha
Method in brief: as §2

Cyperus difformis = assay: Test Example 3: herbicidal effect by application to foliage (Wagner pot, water depth 0.1-0.5 cm); conditions: Nineteenth Table; application to foliage; application herbicide amount 320 g/ha
Method in brief: (§3)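 Visual 0–5 rating of herbicidal ratio, taken 3 weeks after foliar spray of a diluted emulsion formulation at rates expressed as g/ha. Plants had been sown in alluvial soil under 0.1–0.5 cm water and grown 14 days at 25–30 °C under glass before application.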

[8] = tested on: Echinochloa crus-galli var. crus-galli; assay: as above; conditions: Nineteenth Table; application to foliage; application herbicide amount 320 g/ha
Method in brief: as §3

Leptochloa chinensis = assay: as above; conditions: Nineteenth Table; application to foliage; application herbicide amount 320 g/ha
Method in brief: as §3

SMILES	A: Echinochloa oryzicola Vasing. (herbicidal effect grade) [1]	C: Monochoria vaginalis (herbicidal effect grade) (Monochoria vaginalis [2])	B: Scirpus juncoides (herbicidal effect grade) (Scirpus juncoides [3])	a: transplanted Oryza sativa (effect on crop grade) [4]	A (Echinochloa oryzicola Vasing.) herbicidal ratio grade [5]	C (Monochoria vaginalis) herbicidal ratio grade (Monochoria vaginalis [6])	B (Scirpus juncoides) herbicidal ratio grade (Scirpus juncoides [7])	E (herbicidal effect grade) (Cyperus difformis)	H (herbicidal effect grade) [8]	D (herbicidal effect grade) (Leptochloa chinensis)	A (Echinochloa oryzicola Vasing.) herbicidal ratio grade [1]	C (Monochoria vaginalis) herbicidal ratio grade (Monochoria vaginalis [2])	B (Scirpus juncoides) herbicidal ratio grade (Scirpus juncoides [3])	a (transplanted Oryza sativa) effect on crop grade [4]
Cn1nnnc1NC(=O)c1ccc(C(F)(F)F)n2c(N3CCOCC3)nnc12 [2-075]	5 (Herbicidal ratio of 90% or more (almost completely withered))	5 (Herbicidal ratio of 90% or more (almost completely withered))	5 (Herbicidal ratio of 90% or more (almost completely withered))	5 (Herbicidal ratio of 90% or more (almost completely withered))	5 (Herbicidal ratio of 90% or more (almost completely withered))	5 (Herbicidal ratio of 90% or more (almost completely withered))	5 (Herbicidal ratio of 90% or more (almost completely withered))	5 (Herbicidal ratio of 90% or more (almost completely withered))	5 (Herbicidal ratio of 90% or more (almost completely withered))	5 (Herbicidal ratio of 90% or more (almost completely withered))	–	–	–	–
Cn1nnnc1NC(=O)c1ccc(C(F)(F)F)n2c(SCC3CC3)nnc12 [2-084]	5 (Herbicidal ratio of 90% or more (almost completely withered))	4 (Herbicidal ratio of 70% or more and less than 90%)	5 (Herbicidal ratio of 90% or more (almost completely withered))	4 (Herbicidal ratio of 70% or more and less than 90%)	4 (Herbicidal ratio of 70% or more and less than 90%)	3 (Herbicidal ratio of 40% or more and less than 70%)	4 (Herbicidal ratio of 70% or more and less than 90%)	5 (Herbicidal ratio of 90% or more (almost completely withered))	5 (Herbicidal ratio of 90% or more (almost completely withered))	5 (Herbicidal ratio of 90% or more (almost completely withered))	–	–	–	–
CCS(=O)(=O)c1nnc2c(C(=O)Nc3nnnn3C)ccc(C(F)(F)F)n12 [2-038]	5 (Herbicidal ratio of 90% or more (almost completely withered))	5 (Herbicidal ratio of 90% or more (almost completely withered))	5 (Herbicidal ratio of 90% or more (almost completely withered))	4 (Herbicidal ratio of 70% or more and less than 90%)	5 (Herbicidal ratio of 90% or more (almost completely withered))	5 (Herbicidal ratio of 90% or more (almost completely withered))	4 (Herbicidal ratio of 70% or more and less than 90%)	5 (Herbicidal ratio of 90% or more (almost completely withered))	5 (Herbicidal ratio of 90% or more (almost completely withered))	5 (Herbicidal ratio of 90% or more (almost completely withered))	–	–	–	–
CN(CCC#N)c1nnc2c(C(=O)Nc3nnnn3C)ccc(C(F)(F)F)n12 [2-095]	5 (Herbicidal ratio of 90% or more (almost completely withered))	5 (Herbicidal ratio of 90% or more (almost completely withered))	5 (Herbicidal ratio of 90% or more (almost completely withered))	5 (Herbicidal ratio of 90% or more (almost completely withered))	4 (Herbicidal ratio of 70% or more and less than 90%)	5 (Herbicidal ratio of 90% or more (almost completely withered))	5 (Herbicidal ratio of 90% or more (almost completely withered))	5 (Herbicidal ratio of 90% or more (almost completely withered))	5 (Herbicidal ratio of 90% or more (almost completely withered))	5 (Herbicidal ratio of 90% or more (almost completely withered))	–	–	–	–
CCCS(=O)(=O)c1nnc2c(C(=O)Nc3nnnn3C)ccc(C(F)(F)F)n12 [2-070]	5 (Herbicidal ratio of 90% or more (almost completely withered))	5 (Herbicidal ratio of 90% or more (almost completely withered))	5 (Herbicidal ratio of 90% or more (almost completely withered))	4 (Herbicidal ratio of 70% or more and less than 90%)	5 (Herbicidal ratio of 90% or more (almost completely withered))	5 (Herbicidal ratio of 90% or more (almost completely withered))	5 (Herbicidal ratio of 90% or more (almost completely withered))	5 (Herbicidal ratio of 90% or more (almost completely withered))	5 (Herbicidal ratio of 90% or more (almost completely withered))	5 (Herbicidal ratio of 90% or more (almost completely withered))	–	–	–	–
Cn1nnnc1NC(=O)c1ccc(C(F)(F)F)n2cnnc12 [2-001]	2 (Herbicidal ratio of 20% or more and less than 40%)	4 (Herbicidal ratio of 70% or more and less than 90%)	3 (Herbicidal ratio of 40% or more and less than 70%)	0 (Herbicidal ratio of 5% or less (almost no effect))	2 (Herbicidal ratio of 20% or more and less than 40%)	3 (Herbicidal ratio of 40% or more and less than 70%)	2 (Herbicidal ratio of 20% or more and less than 40%)	3 (Herbicidal ratio of 40% or more and less than 70%)	4 (Herbicidal ratio of 70% or more and less than 90%)	4 (Herbicidal ratio of 70% or more and less than 90%)	–	–	–	–
COCCSc1nnc2c(C(=O)Nc3nnnn3C)ccc(C(F)(F)F)n12 [2-101]	–	–	–	–	4 (Herbicidal ratio of 70% or more and less than 90%)	5 (Herbicidal ratio of 90% or more (almost completely withered))	4 (Herbicidal ratio of 70% or more and less than 90%)	–	5 (Herbicidal ratio of 90% or more (almost completely withered))	5 (Herbicidal ratio of 90% or more (almost completely withered))	5 (Herbicidal ratio of 90% or more (almost completely withered))	5 (Herbicidal ratio of 90% or more (almost completely withered))	5 (Herbicidal ratio of 90% or more (almost completely withered))	3 (Herbicidal ratio of 40% or more and less than 70%)
CCOC(=O)Cc1nnc2c(C(=O)Nc3nnnn3C)ccc(C(F)(F)F)n12 [2-040]	4 (Herbicidal ratio of 70% or more and less than 90%)	4 (Herbicidal ratio of 70% or more and less than 90%)	4 (Herbicidal ratio of 70% or more and less than 90%)	4 (Herbicidal ratio of 70% or more and less than 90%)	4 (Herbicidal ratio of 70% or more and less than 90%)	4 (Herbicidal ratio of 70% or more and less than 90%)	3 (Herbicidal ratio of 40% or more and less than 70%)	5 (Herbicidal ratio of 90% or more (almost completely withered))	4 (Herbicidal ratio of 70% or more and less than 90%)	–	–	–	–	–
CC#Cc1nnc2c(C(=O)Nc3nnnn3C)ccc(C(F)(F)F)n12 [2-106]	–	–	–	–	1 (Herbicidal ratio of 5% or more and less than 20%)	3 (Herbicidal ratio of 40% or more and less than 70%)	2 (Herbicidal ratio of 20% or more and less than 40%)	–	1 (Herbicidal ratio of 5% or more and less than 20%)	2 (Herbicidal ratio of 20% or more and less than 40%)	5 (Herbicidal ratio of 90% or more (almost completely withered))	4 (Herbicidal ratio of 70% or more and less than 90%)	3 (Herbicidal ratio of 40% or more and less than 70%)	2 (Herbicidal ratio of 20% or more and less than 40%)
